Among the data in BindingDB's records for PubMed 9864265 (Second Tokushima Institute of New Drug Research, 1998) are Ki values, retold here.

Each structure is given as a SMILES string. Where only a bound is given, the exact number is not on record here.

The target of test [1] is T1, Vasopressin V1b receptor (Homo sapiens, UniProt P47901).
T1 sequence (P47901 whole entry): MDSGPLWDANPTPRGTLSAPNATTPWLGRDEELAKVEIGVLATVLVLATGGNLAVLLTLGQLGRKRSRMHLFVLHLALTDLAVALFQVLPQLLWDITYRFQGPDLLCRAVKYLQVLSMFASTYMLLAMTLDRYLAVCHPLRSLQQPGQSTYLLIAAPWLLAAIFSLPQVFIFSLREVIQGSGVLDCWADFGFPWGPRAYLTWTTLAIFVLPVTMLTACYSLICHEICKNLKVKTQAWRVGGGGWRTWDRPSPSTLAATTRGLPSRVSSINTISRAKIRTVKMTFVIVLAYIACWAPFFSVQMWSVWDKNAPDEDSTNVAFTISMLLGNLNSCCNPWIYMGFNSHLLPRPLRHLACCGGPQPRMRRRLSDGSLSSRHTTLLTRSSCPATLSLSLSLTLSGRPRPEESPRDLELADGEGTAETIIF

The target in test [2] is Vasopressin V1a receptor (Rattus norvegicus, UniProt P30560).
Test [3] concerns the target Vasopressin V2 receptor (Rattus norvegicus, UniProt Q00788).

Vasopressin V1a receptor, sequence (P30560 whole entry): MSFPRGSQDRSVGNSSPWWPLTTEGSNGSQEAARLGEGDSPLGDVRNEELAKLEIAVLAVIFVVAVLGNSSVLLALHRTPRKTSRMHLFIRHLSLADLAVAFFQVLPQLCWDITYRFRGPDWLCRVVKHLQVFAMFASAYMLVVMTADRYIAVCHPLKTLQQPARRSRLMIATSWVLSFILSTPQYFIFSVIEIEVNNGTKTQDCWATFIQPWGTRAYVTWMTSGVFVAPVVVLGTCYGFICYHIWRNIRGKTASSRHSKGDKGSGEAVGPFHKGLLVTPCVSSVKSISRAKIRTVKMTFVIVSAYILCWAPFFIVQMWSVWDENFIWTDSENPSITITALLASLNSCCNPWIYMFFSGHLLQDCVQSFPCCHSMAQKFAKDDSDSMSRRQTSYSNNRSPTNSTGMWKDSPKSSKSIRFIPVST
Vasopressin V2 receptor, sequence (Q00788 whole entry): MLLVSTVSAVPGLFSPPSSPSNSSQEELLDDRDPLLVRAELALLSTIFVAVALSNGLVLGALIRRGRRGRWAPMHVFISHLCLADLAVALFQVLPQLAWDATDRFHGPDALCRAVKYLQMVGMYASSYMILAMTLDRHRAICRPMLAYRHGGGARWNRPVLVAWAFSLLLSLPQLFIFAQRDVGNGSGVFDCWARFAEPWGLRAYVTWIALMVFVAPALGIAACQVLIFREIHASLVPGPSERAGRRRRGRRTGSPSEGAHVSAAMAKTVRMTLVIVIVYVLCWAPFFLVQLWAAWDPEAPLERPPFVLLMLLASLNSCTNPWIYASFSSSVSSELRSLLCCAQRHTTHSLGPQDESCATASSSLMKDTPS

What is called Ki is a measure of affinity in units of concentration, obtained from inhibition or displacement. Take `Cc1ccccc1C(=O)Nc1ccc(C(=O)N2CCCC(N(C)C)c3ccccc32)cc1` (stereo not given): the figures for the Ki in test [1] and in test [2] were more than 10 µM and 524 nM, respectively.
Regarding `Cc1ccccc1C(=O)Nc1ccc(C(=O)N2CCCC(O)c3cc(Cl)ccc32)c(C)c1` (stereo not given), the figures for the Ki in test [3], in test [1] and in test [2] were 1.33 nM, more than 10 µM and 325 nM, respectively.
